Test results: US20110092448A1, “Peptide Conjugate for Oral Delivery of Hydrophilic Peptide Analgesics” (METABOLIC PHARMACEUTICALS LIMITED, priority 2005, published 2011)
Where two headings read alike, the source gives them in different places.

Assays:
[1] = system: blood calcium levels in normal CD-1 mice; assay: Blood (serum) calcium levels in normal mice after EP-PTH; format: in vivo, mouse; details: oral gavage 40, 200 or 400 μg/kg, 1 h
Experimental: (§1) EP-PTH was administered orally to normal mice and the anabolic action on blood calcium levels were measured. More specifically, after an initial blood sampling at time zero, groups of normal CD-1 mice were administered EP-PTH via either oral gavage (40 μg/kg, 200 μg/kg or 400 μg/kg) or subcutaneous injection (40 μg/kg) as described in Example 3. One hour after the administration of the EP-PTH and a second blood sample was taken. The serum calcium levels of blood samples were then assessed by an enzymatic method.
(§2) The person skilled in the art will understand that the method of estimating oral availability by identifying an oral dose response curve in a pharmacodynamic animal experiment and comparing with the parenterally administered dose response curve may be used in assessing the application of the invention to other parent peptides.

[2] = as above; format: in vivo, mouse; details: mouse, serum; CD-1 mice, oral vs subcutaneous; read-out: oral bioavailability based on pharmacodynamic measurements
Experimental: as §1, §2

[3] = cited from earlier work
[4] = system: STZ diabetic Sprague-Dawley rats with neuropathic pain; details: rat, in vivo, po

Compound: CC[C@H](C)[C@H](NC(=O)[C@H](CCC(=O)O)NC(=O)[C@H](CO)NC(=O)[C@@H](NC(=O)[C@H](CO)NC(=O)[C@H](CCC(N)=O)NC(=O)[C@@H](NC(=O)[C@@H](NC(=O)[C@H](CCCNC(=N)N)NC(=O)[C@@H](N)CC(C)C)[C@@H](C)CC)C(C)C)C(C)C)C(=O)N[C@@H](CCC(N)=O)C(=O)N[C@@H](CC(C)C)C(=O)N[C@@H](CCSC)C(=O)N[C@@H](Cc1c[nH]cn1)C(=O)N[C@@H](CC(N)=O)C(=O)N[C@@H](CC(C)C)C(=O)NCC(=O)N[C@@H](CCCCN)C(=O)N[C@@H](Cc1c[nH]cn1)C(=O)N[C@@H](CC(C)C)C(=O)N[C@@H](CC(N)=O)C(=O)N[C@@H](CO)C(=O)N[C@@H](CCSC)C(=O)N[C@@H](CCC(=O)O)C(=O)N[C@@H](CCCNC(=N)N)C(=O)N[C@H](C(=O)N[C@@H](CCC(=O)O)C(=O)N[C@@H](Cc1c[nH]c2ccccc12)C(=O)N[C@@H](CC(C)C)C(=O)N[C@@H](CCCNC(=N)N)C(=O)N[C@@H](CCCCN)C(=O)N[C@@H](CCCCN)C(=O)N[C@@H](CC(C)C)C(=O)N[C@@H](CCC(N)=O)C(=O)N[C@@H](CC(=O)O)C(=O)N[C@H](C(=O)N[C@@H](Cc1c[nH]cn1)C(=O)N[C@@H](CC(N)=O)C(=O)N[C@@H](Cc1ccccc1)C(=O)O)C(C)C)C(C)C [EP-PTH]
- effect on blood calcium levels compared to vehicle control [1]: dose-dependent effect
- bioavailability [2]: ~10%

Compound: AOD9604: AOD peptide derived from the C-terminal sequence of human growth hormone, earlier applications (YLRIVQCRSVEGSCGF)
- oral bioavailability ([3]; earlier applications PCT/AU98/00724, PCT/AU01/00354, PCT/AU00/01362): substantially orally bioavailable

Compound: Tyr-Leu-Arg-Ile-Val-Gly-Cys-Cys-Ser-Asp-Pro-Arg-Cys-Asn-Tyr-Asp-His-Pro-Glu-Ile-Cys-NH2 [ACV3.2]
- oral availability [4]: substantial oral availability
- analgesic effect vs vehicle group ([4]; 1 mg/kg): significant difference

Compound: parathyroid hormone: hormone known to regulate levels of blood calcium; parent peptide of EP-PTH
- oral bioavailability ([3]; reported): about 0.3%
